Results on 39 molecules are retold here after patent US4115385A, “Antibacterial 3-(5-tetrazolyl) penam compounds” (Pfizer Inc., priority 1977, dated 1978).

Converted amounts (≈) assume the structure as drawn. Bounds are passed on as bounds.

For one experiment, the system named is Streptococcus pyogenes. Kind of experiment: In vitro minimum inhibitory concentration (MIC) vs. Strep. pyogenes. Format: cell-based. As to conditions: Streptococcus pyogenes, read-out: MIC vs. Strep. pyogenes. The protocol: The antibacterial penam compounds of the instant invention show activity against a wide variety of gram-positive and gram-negative bacteria. […] The broth is inoculated with the bacterial culture, and with the test antibiotic, and then it is incubated overnight. On the next day, the test is read visually. The minimum inhibitory concentration (MIC) is the lowest concentration of antibiotic which prevents turbidity, i.e., which prevents growth of the microorganism. In vitro activities of several of the penam compounds of the invention are presented later in this specification.
In Table II, the minimum inhibitory concentrations (MIC's) of compounds of formula I, wherein R^2 is hydrogen, against a strain of Streptococcus pyogenes, are reported; and in Table III, minimum inhibitory concentrations of compounds of formula I, wherein R^2 is hydrogen, against a strain of Staphylococcus aureus, are presented. Because of the tautomeric nature of such tetrazole derivatives, referred to hereinbefore,each of the preparations tested also contains some of the corresponding compound of formula II, wherein R^3 is hydrogen.
The MIC is the lowest concentration that inhibits growth of the organism. As for `CC1(C)S[C@@H]2[C@H](NC(=O)[C@H](NC(=O)NC(=O)c3ccco3)c3ccccc3)C(=O)N2[C@H]1c1nn[nH]n1` [D-2-(3-[2-furoyl]ureido)-2-phenylacetyl, 6-(D-2-[3-(2-Furoyl)ureido]-2-phenylacetamido)-2,2-dimethyl-3-(5-tetrazolyl)penam], the MIC was less than 0.1 µg/mL.
As for `CC1(C)S[C@@H]2[C@H](NC(=O)[C@H](NC(=O)OCc3ccccc3)c3ccccc3)C(=O)N2[C@H]1c1nnn[nH]1`, the minimal inhibitory concentration (MIC) is less than 0.1 µg/mL.
On to `CC(=O)NCC(=O)N[C@@H](C(=O)N[C@@H]1C(=O)N2[C@@H]1SC(C)(C)[C@@H]2c1nn[nH]n1)c1ccccc1`, for which the MIC was less than 0.1 µg/mL.
Same read-out and setting: the figure for `CC1(C)S[C@@H]2[C@H](NC(=O)Cc3ccccc3CN)C(=O)N2[C@H]1c1nnn[nH]1` [2-(o-[aminomethyl]phenyl)acetyl, 6-[2-[o-(aminomethyl)phenyl]acetamido]-2,2-dimethyl-3-(5-tetrazolyl)penam] is less than 0.1 µg/mL; for `CC1(C)S[C@@H]2[C@H](NC(=O)[C@H](NS(=O)(=O)c3ccccc3)c3ccc(O)cc3)C(=O)N2[C@H]1c1nn[nH]n1` [6-(D-2-[Benzenesulfonamido]-2-[p-hydroxyphenyl]acetamido)-2,2-dimethyl-3-(5-tetrazolyl)penam] it is less than 0.1 µg/mL.
`CC1(C)S[C@@H]2[C@H](NC(=O)[C@H](NC(=O)NC(=O)c3cc(Br)cc(Br)c3)c3ccccc3)C(=O)N2[C@H]1c1nn[nH]n1`: the MIC is less than 0.1 µg/mL.
In the case of `CC1(C)S[C@@H]2[C@H](NC(=O)[C@H](NC(=O)CNC(=N)c3ccncc3)c3ccc(O)cc3)C(=O)N2[C@H]1c1nnn[nH]1` [6-(D-2-[2-(4-Pyridinecarboxamidino)acetamido]-2-(p-hydroxyphenyl]acetamido)-2,2-dimethyl-3-(5-tetrazolyl)penam], the MIC is less than 0.1 µg/mL.
Take `Cc1ccc(NC(=O)N[C@@H](C(=O)N[C@@H]2C(=O)N3[C@@H]2SC(C)(C)[C@@H]3c2nnn[nH]2)c2ccccc2)cc1` [D-2-(3-[p-tolyl]ureido)-2-phenylacetyl]: the minimum inhibitory concentration (MIC) is less than 0.1 µg/mL.
In the case of `CC1(C)S[C@@H]2[C@H](NC(=O)[C@H](NC(=O)C(=Cc3cccs3)C(=O)O)c3ccccc3)C(=O)N2[C@H]1c1nnn[nH]1` [6-(D-2-[2-carboxy-3-(2-thienyl)acrylamido]-2-phenylacetamido)-2,2-dimethyl-3-(5-tetrazolyl)penam], the MIC was less than 0.1 µg/mL.
Consider `CCOC(=O)C(=O)N[C@@H](C(=O)N[C@@H]1C(=O)N2[C@@H]1SC(C)(C)[C@@H]2c1nnn[nH]1)c1ccccc1`, for which the MIC is less than 0.1 µg/mL.
As for `CC(=O)NCCC(=O)N[C@@H](C(=O)N[C@@H]1C(=O)N2[C@@H]1SC(C)(C)[C@@H]2c1nnn[nH]1)c1ccccc1`, the MIC was less than 0.1 µg/mL.
With `CCC(=O)NCC(=O)N[C@@H](C(=O)N[C@@H]1C(=O)N2[C@@H]1SC(C)(C)[C@@H]2c1nn[nH]n1)c1ccccc1`, the MIC is less than 0.1 µg/mL.
Same read-out and setting: as for `COc1ccc(NC(=O)N[C@@H](C(=O)N[C@@H]2C(=O)N3[C@@H]2SC(C)(C)[C@@H]3c2nnn[nH]2)c2ccc(O)cc2)cc1`, the figure is less than 0.1 µg/mL; as for `CC1(C)S[C@@H]2[C@H](NC(=O)C(N)c3cccnc3)C(=O)N2[C@H]1c1nnn[nH]1` (mixture of isomers) [DL-2-amino-2-(3-pyridyl)acetyl], less than 0.1 µg/mL.
Regarding `CC1(C)S[C@@H]2[C@H](NC(=O)C(NC(=O)CBr)c3ccccc3)C(=O)N2[C@H]1c1nn[nH]n1` (stereo partly drawn) [2-(2-bromoacetamido)-2-phenylacetyl, 6-(2-[2-bromoacetamido]-2-phenylacetamido)-2,2-dimethyl-3-(5-tetrazolyl)penam], the MIC was less than 0.1 µg/mL.
On the same count and under the same terms, as for `CC1(C)S[C@@H]2[C@H](NC(=O)[C@H](NC(=O)CCl)c3ccccc3)C(=O)N2[C@H]1c1nn[nH]n1` [D-2-(2-chloroacetamido)-2-phenylacetyl, 6-(D-2-[2-Chloroacetamido]-2-phenylacetamido)-2,2-dimethyl-3-(5-tetrazolyl)penam], the figure is less than 0.1 µg/mL; as for `CC1(C)S[C@@H]2[C@H](NC(=O)[C@H](NC(=O)CNC(=O)c3ccccc3)c3ccccc3)C(=O)N2[C@H]1c1nn[nH]n1` [6-(2-D-[2-Benzamidoacetamido]-2-phenylacetamido)-2,2-dimethyl-3-(5-tetrazolyl)penam], less than 0.1 µg/mL.
With `CC1(C)S[C@@H]2[C@H](NC(=O)[C@H](NC(=O)CNC(=O)NC(=N)NCc3ccccc3)c3ccccc3)C(=O)N2[C@H]1c1nn[nH]n1`, the MIC amounted to 0.1 µg/mL (≈ 0.165 µM).
As for `CC1(C)S[C@@H]2[C@H](NC(=O)[C@H](NC(=O)Cc3ccco3)c3ccccc3)C(=O)N2[C@H]1c1nnn[nH]1`, the MIC was less than 0.1 µg/mL.

The experiment is the same for the next values; noted with them: Streptococcus pyogenes; Examples; read-out: MIC against Strep. pyogenes.
As for `CC1(C)S[C@@H]2[C@H](NC(=O)[C@H](NC(=O)Nc3ccccc3)c3ccc(O)cc3)C(=O)N2[C@H]1c1nnn[nH]1` [6-(2-[3-Phenylureido]-2-[p-hydroxyphenyl]acetamido)-2,2-dimethyl-3-(5-tetrazolyl)penam], the MIC is less than 0.1 µg/mL.

The same experiment, now with this note: Streptococcus pyogenes; Table II; two-fold serial dilution, Brain-Heart Infusion broth, overnight; read-out: MIC vs. Strep. pyogenes.
In the case of `CC1(C)S[C@@H]2[C@H](NC(=O)[C@H](NC(=O)CNC(=N)c3cc(Br)cc(S(N)(=O)=O)c3)c3ccccc3)C(=O)N2[C@H]1c1nnn[nH]1`, the MIC was determined as 0.004 µg/mL (≈ 0.00578 µM).
The same measure, in the same setting: as for `CC1(C)S[C@@H]2[C@H](NC(=O)C(Cc3ccccc3)NC(=N)c3ccncc3)C(=O)N2[C@H]1c1nnn[nH]1` (stereo partly drawn), the figure is 0.2 µg/mL (≈ 0.407 µM); as for `CC1(C)S[C@@H]2[C@H](NC(=O)CNC(=O)NC(=N)Cc3ccc(Cl)cc3)C(=O)N2[C@H]1c1nnn[nH]1` [6-(2-[3-(2-[p-Chlorophenyl]acetimidoyl)ureido]acetamido)-2,2-dimethyl-3-(5-tetrazolyl)penam], 100 µg/mL (≈ 203 µM).
The same measure, in the same setting: as for `CC1(C)S[C@@H]2[C@H](NC(=O)[C@H](NC(=O)CNC(=O)NC(=N)N)c3ccc(O)cc3)C(=O)N2[C@H]1c1nnn[nH]1` [6-(D-2-[2-(3-[guanyl]ureido)acetamido]-2-[4-hydroxyphenyl]acetamido)-2,2-dimethyl-3-(5-tetrazolyl)penam], the figure is 0.004 µg/mL (≈ 0.00753 µM); as for `CC1(C)S[C@@H]2[C@H](NC(=O)[C@H](NC(=O)CSc3ncc[nH]3)c3ccccc3)C(=O)N2[C@H]1c1nn[nH]n1`, 0.2 µg/mL (≈ 0.389 µM).
Same read-out and setting: the figure for `CC1(C)S[C@@H]2[C@H](NC(=O)[C@H](NC(=O)c3ccc(NC(=N)N)cc3)c3ccccc3)C(=O)N2[C@H]1c1nn[nH]n1` [6-(D-2-[p-Guanidinobenzamido]-2-phenylacetamido)-2,2-dimethyl-3-(5-tetrazolyl)penam] is 1.56 µg/mL (≈ 2.92 µM); for `CC1(C)S[C@@H]2[C@H](NC(=O)[C@H](NC(=O)CCNC(=S)Nc3ccccc3)c3ccccc3)C(=O)N2[C@H]1c1nnn[nH]1` it is 1.56 µg/mL (≈ 2.69 µM); for `CC1(C)S[C@@H]2[C@H](NC(=O)[C@H](NC(=O)NC(=N)N)c3ccc(O)cc3)C(=O)N2[C@H]1c1nnn[nH]1` [6-(D-2-[3-guanylureido]-2-[4-hydroxyphenyl]acetamido)-2,2-dimethyl-3-(5-tetrazolyl)-penam] it is 0.004 µg/mL (≈ 0.00843 µM).
For `Cc1cc(C)cc(C(=N)NCC(=O)N[C@@H]2C(=O)N3[C@@H]2SC(C)(C)[C@@H]3c2nnn[nH]2)c1` [2-(3,5-dimethylbenzamidino)acetyl], the MIC amounted to 0.39 µg/mL (≈ 0.91 µM).
Regarding `CC(=O)C(C(=O)NC1C(=O)N2C(c3nnn[nH]3)C(C)(C)S[C@H]12)c1ccccc1` (stereo partly drawn) [D-2-acetyl-2-phenylacetyl, 6-(2-Acetyl-2-phenylacetamido)-2,2-dimethyl-3-(5-tetrazolyl)penam], the MIC amounted to 0.004 µg/mL (≈ 0.00999 µM).
`Cc1ccc(S(=O)(=O)NC(=O)N[C@@H]2C(=O)N3[C@@H]2SC(C)(C)[C@@H]3c2nn[nH]n2)cc1` [N-(p-toluenesulfonyl)carbomoyl]: the MIC amounted to 1.56 µg/mL (≈ 3.57 µM).
Turning to `CC1(C)S[C@@H]2[C@H](NC(=O)C(C(=O)O)c3ccccc3)C(=O)N2[C@H]1c1nnn[nH]1` (stereo partly drawn) [2-carboxy-2-phenylacetyl, 6-(2-Carboxy-2-phenylacetamido)-2,2-dimethyl-3-(5-tetrazolyl)penam], the minimum inhibitory concentration (MIC) worked out at 0.002 µg/mL (≈ 0.00497 µM).
Turning to `CC1(C)S[C@@H]2[C@H](NC(=O)[C@H](NS(=O)(=O)c3ccc4ccccc4c3)c3ccccc3)C(=O)N2[C@H]1c1nn[nH]n1`, the minimum inhibitory concentration (MIC) is 0.2 µg/mL (≈ 0.355 µM).
The same measure, in the same setting: the figure for `CCN=C(NCC)SCC(=O)NC(=O)N[C@@H](C(=O)N[C@@H]1C(=O)N2[C@@H]1SC(C)(C)[C@@H]2c1nn[nH]n1)c1ccccc1` [6-(D-2-[3-(2-(N,N'-diethylguanylthio]acetyl)ureido]-2-phenylacetamido)-2,2-dimethyl-3-(5-tetrazolyl)penam] is 0.004 µg/mL (≈ 0.00679 µM).
For the molecule `CC1(C)S[C@@H]2[C@H](NC(=O)/C=C\C(N)=O)C(=O)N2[C@H]1c1nnn[nH]1` [3-(carbamoyl)acryloyl, 6-(3-[Carbamoyl]acrylamido)-2,2-dimethyl-3-(5-tetrazolyl)penam], the MIC is less than 0.1 µg/mL.
For `CC1(C)S[C@@H]2[C@H](NC(=O)[C@H](NC(=O)c3ccc([N+](=O)[O-])cc3)c3ccccc3)C(=O)N2[C@H]1c1nn[nH]n1` [D-2-(4-nitrobenzamido)-2-phenylacetyl, 6-(D-2-[4-nitrobenzamido]-2-phenylacetamido)-2,2-dimethyl-3-(5-tetrazolyl)penam], the MIC is 0.004 µg/mL (≈ 0.00765 µM).
Take `CC1(C)S[C@@H]2[C@H](NC(=O)[C@H](NC(=O)C(=O)c3ccccc3)c3ccccc3)C(=O)N2[C@H]1c1nnn[nH]1` [D-2-(benzoylformamido)-2-phenylacetyl]: the MIC worked out at 25 µg/mL (≈ 49.5 µM).
Consider `CC1(C)S[C@@H]2[C@H](NC(=O)[C@H](NC(=O)NC(=O)OCc3ccccc3)c3ccccc3)C(=O)N2[C@H]1c1nn[nH]n1`, for which the MIC came out at 0.004 µg/mL (≈ 0.00726 µM).

Staying with this experiment, now noted: Streptococcus pyogenes; Table IV; read-out: MIC vs. Strep. pyogenes.
Regarding `CC1(C)S[C@@H]2[C@H](N3CN[C@H](c4ccccc4)C3=O)C(=O)N2[C@H]1c1nnn[nH]1` [6-(5-Oxo-4-phenyl-1-imidazolidinyl)-2,2-dimethyl-3-(5-tetrazolyl)penam], the MIC stood at 6.25 µg/mL (≈ 16.2 µM).
